In patent publication US20130084328A1, “METHYLATED CODING AND NON-CODING RNA GENES AS DIAGNOSTIC AND THERAPEUTIC TOOLS FOR HUMAN MELANOMA” (Sanford-Burnham Medical Research Institute, priority 2011, published 2013):

Tested on: miR-124-3a and miR-let-7i
Assay: expression and bisulfite methylation of miR-124-3a and miR-let-7i after 5-Aza-dC
Assay type: cell-based, human
Conditions: melanoma cells
Procedure: PCR was performed using a 6-minute hot-start at 95° C., followed by 35 cycles at 94° C. for 20 s, 54° C. for 25 s, and 72° C. for 30 s, ending with a 10-min extension at 72° C. using AmpliTaq Gold (Applied Biosystems/Life Technologies). PCR products were gel purified using the QiaQuick gel extraction kit (QIAGEN) and cloned into the pCR4-TOPO vector (Invitrogen/Life Technologies). Nine clones for each miRNA candidate and 6 clones for each patient sample were sequenced using M13 primers and the BigDye terminator kit v1.1 (Applied Biosystems/Life Technologies), analyzed on a 3130×1 Genetic Analyzer (Applied Biosystems/Life Technologies), and aligned using Vector NTi AlignX (Invitrogen/Life Technologies).

Structure (SMILES): Nc1ncn([C@H]2C[C@H](O)[C@@H](CO)O2)c(=O)n1 [5AzadC, 5-aza-2′-deoxycytidine]
- expression and methylation levels of miR-124-3a and miR-let-7i: not affected
